Test results reported in patent publication US11999727B2 (Tango Therapeutics, Inc., priority 2020, dated 2024).

How the values were obtained:
[1] = tested on: HAP1 MTAP-deleted cell line; experiment: SDMA in-cell western assay, HAP1 MTAP-deleted; type: cell-based; settings: for IC50: Homo sapiens, HAP1, SDMA in-cell western, HAP1 MTAP-deleted, read-out: HAP1 MTAP deleted IC50; for MTAP intact/deleted ratio: IC50 ratio HAP1 MTAP-intact / HAP1 MTAP-deleted, SDMA in-cell western
Outline: (§1)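 MTAP-null vs endogenous-MTAP HAP1 isogenic cells; in-cell western SDMA readout; IC50 per line.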

[2] = biological target: T1, PRMT5 (Homo sapiens, UniProt O14744); experiment: PRMT5 biochemical IC50 assay with SAM as cofactor; settings: PRMT5, SAM as cofactor; read-out: SAM IC50
T1 construct: purchased Viva (custom protein)

[3] = biological target: T1, PRMT5; experiment: PRMT5 biochemical IC50 assay with no cofactor; settings: PRMT5, no cofactor; read-out: No Cofactor/rel IC50
Description: Table 1 indicates IC50 values (μM) against PRMT5 for exemplary compounds in the presence of SAM as cofactor, with no cofactor, and with MTA as cofactor, respectively (columns 4-6). […] Ki values can be calculated from the IC50 values as described in the Examples section. As detailed in the Examples section, for the assay performed in the presence of SAM, IC50=Ki×1.5 (Ki=IC50/1.5).

[4] = tested on: HAP1 MTAP-deleted cell line; experiment: Viability assay, MTAP-deleted cell line; type: cell-based; settings: Homo sapiens, HAP1, viability assay, HAP1 MTAP-deleted; read-out: HAP1 MTAP deleted viability
Description: Table 1 additionally indicates IC50 values in a viability assay for the MTAP-deleted cell line (column 10), indicating the effect of treatment with compound on cell survival.

[5] = biological target: T1, PRMT5; experiment: PRMT5 biochemical IC50 assay with MTA as cofactor; settings: PRMT5, MTA as cofactor; read-out: MTA IC50
[6] = tested on: HAP1 MTAP-intact cell line; experiment: SDMA in-cell western assay, HAP1 MTAP-intact; type: cell-based; design: MTAP HAP1 intact IC50: scale not given here; settings: HAP1 MTAP-intact; for IC50: Homo sapiens, HAP1, SDMA in-cell western, read-out: MTAP HAP1 intact IC50
Outline: as §1

T1 sequence (O14744 whole entry): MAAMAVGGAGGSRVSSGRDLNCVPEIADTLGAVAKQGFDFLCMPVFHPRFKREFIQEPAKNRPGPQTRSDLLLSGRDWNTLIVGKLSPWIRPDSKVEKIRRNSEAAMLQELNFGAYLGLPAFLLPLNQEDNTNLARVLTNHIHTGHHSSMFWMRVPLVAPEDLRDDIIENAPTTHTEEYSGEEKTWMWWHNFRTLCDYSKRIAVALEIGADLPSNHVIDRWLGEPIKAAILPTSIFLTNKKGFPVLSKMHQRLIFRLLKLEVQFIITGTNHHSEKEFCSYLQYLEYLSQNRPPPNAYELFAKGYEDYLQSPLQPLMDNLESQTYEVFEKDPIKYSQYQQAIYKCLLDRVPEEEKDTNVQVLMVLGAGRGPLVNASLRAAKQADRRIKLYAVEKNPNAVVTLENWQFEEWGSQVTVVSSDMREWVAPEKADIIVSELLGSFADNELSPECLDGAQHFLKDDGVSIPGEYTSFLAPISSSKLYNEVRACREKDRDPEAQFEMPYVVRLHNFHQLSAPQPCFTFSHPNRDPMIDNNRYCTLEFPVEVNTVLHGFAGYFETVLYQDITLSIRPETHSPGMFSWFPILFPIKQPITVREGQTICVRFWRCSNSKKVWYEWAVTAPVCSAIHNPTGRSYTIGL
T1 sequence (Q9BQA1 whole entry partner): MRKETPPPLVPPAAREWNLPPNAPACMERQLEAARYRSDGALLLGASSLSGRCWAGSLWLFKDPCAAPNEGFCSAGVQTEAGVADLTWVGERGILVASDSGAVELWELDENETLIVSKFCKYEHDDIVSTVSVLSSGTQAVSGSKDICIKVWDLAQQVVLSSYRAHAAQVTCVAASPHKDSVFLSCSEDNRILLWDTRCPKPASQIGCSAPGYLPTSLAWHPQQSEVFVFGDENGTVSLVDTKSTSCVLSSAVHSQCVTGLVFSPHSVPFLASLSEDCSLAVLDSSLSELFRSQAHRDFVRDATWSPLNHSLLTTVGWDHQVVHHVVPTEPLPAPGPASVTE

In the case of `Cc1cc(NC(=O)C(=O)N2C[C@H](C)CC[C@H]2[C@H]2CC3(C[C@H](C(N)=O)C3)C2)cnc1N` (mixture of isomers) [Compound 812, 6-(1-(2-((6-amino-5-methylpyridin-3-yl)amino)-2-oxoacetyl)-5-methylpiperidin-2-yl)spiro[3.3]heptane-2-carboxamide], the IC50 [1] is reported as > 1000 nM, the MTAP intact/deleted ratio [1] is reported as “C (an IC50 ratio of less than 3 fold)” and the IC50 [2] is reported as > 500 nM. The IC50 [3] was > 500 nM, the IC50 [4] was > 10 µM and the IC50 [5] was 50 to 500 nM. For the same compound, the IC50 [6] was > 1000 nM.

With `CNC(=O)N1CCCC([C@@H]2CC[C@@H](C)CN2C(=O)C(=O)Nc2cnc(N)c(C)c2)C1` (mixture of isomers) [Compound 814, 1-(2-((6-amino-5-methylpyridin-3-yl)amino)-2-oxoacetyl)-N,5-dimethyl-[2,3′-bipiperidine]-1′-carboxamide] the IC50 [1] was 100 to 1000 nM, the MTAP intact/deleted ratio [1] was “A (an IC50 ratio greater than or equal to 10 fold)” and the IC50 [2] was 50 to 500 nM. The IC50 [3] was 50 to 500 nM, the IC50 [4] was > 10 µM and the IC50 [5] was 50 to 500 nM. For the same compound, the IC50 [6] was > 1000 nM.

With `Cc1cc(NC(=O)C(=O)N2C[C@H](C)CC[C@H]2c2cc3cn[nH]c3s2)cnc1N` (racemic) [Compound 815, N-(6-amino-5-methylpyridin-3-yl)-2-(5-methyl-2-(1H-thieno[2,3-c]pyrazol-5-yl)piperidin-1-yl)-2-oxoacetamide] the IC50 [1] was < 100 nM, the MTAP intact/deleted ratio [1] was “A* (an IC50 ratio greater than or equal to 10 fold)” and the IC50 [2] was 50 to 500 nM. The IC50 [3] was 50 to 500 nM, the IC50 [4] was < 1 µM and the IC50 [5] was < 50 nM. For the same compound, the IC50 [6] was 100 to 1000 nM.

With `C[C@@H]1CC[C@@H](c2ccc(F)cc2)N(C(=O)C(=O)Nc2cnc(OC(F)(F)F)c(C(N)=O)c2)C1` (racemic) [Compound 818, rac 5-[[2-[(2R,5S)-2-(4-fluorophenyl)-5-methyl-1-piperidyl]-2-oxo-acetyl]amino]-2-(trifluoromethoxy)pyridine-3-carboxamide] the IC50 [1] was 100 to 1000 nM, the MTAP intact/deleted ratio [1] was “A (an IC50 ratio greater than or equal to 10 fold)” and the IC50 [2] was 50 to 500 nM. For the same compound, the IC50 [3] was 50 to 500 nM, the IC50 [4] was > 10 µM and the IC50 [5] was 50 to 500 nM. For the same compound, the IC50 [6] was > 1000 nM.

With `CNc1nc2cc([C@@H]3CC[C@@H](C)CN3C(=O)C(=O)Nc3cnc(C)c(C)c3)ccc2s1` (racemic) [Compound 828, N-(5,6-dimethyl-3-pyridyl)-2-[(2R,5S)-5-methyl-2-[2-(methylamino)-1,3-benzothiazol-5-yl]-1-piperidyl]-2-oxo-acetamide] the IC50 [1] was < 100 nM, the MTAP intact/deleted ratio [1] was “A (an IC50 ratio greater than or equal to 10 fold)” and the IC50 [2] was 50 to 500 nM. For the same compound, the IC50 [3] was 50 to 500 nM, the IC50 [4] was 1 to 10 µM and the IC50 [5] was 50 to 500 nM. The IC50 [6] was > 1000 nM.

In the case of `CC(=O)N[C@H]1CCN(C(=O)C(=O)Nc2cnc(N)c(C)c2)[C@@H](c2ccccc2)C1` (racemic) [Compound 831, 2-[(2R,4S)-4-acetamido-2-phenyl-1-piperidyl]-N-(6-amino-5-methyl-3-pyridyl)-2-oxo-acetamide], the IC50 [1] is reported as > 1000 nM, the MTAP intact/deleted ratio [1] is reported as “B (an IC50 ratio greater than or equal to 3 fold but lower than 10 fold)” and the IC50 [2] is reported as > 500 nM. The IC50 [3] was > 500 nM, the IC50 [4] was > 10 µM and the IC50 [5] was 50 to 500 nM. The IC50 [6] was > 1000 nM.

With `C[C@@H]1CN(C(=O)C(=O)Nc2cncc(C(N)=O)c2)[C@@H](c2ccc(F)cc2)C(F)(F)C1` (racemic) [Compound 836, 5-[[2-[(2S,5S)-3,3-difluoro-2-(4-fluorophenyl)-5-methyl-1-piperidyl]-2-oxo-acetyl]amino]pyridine-3-carboxamide] the IC50 [1] was 100 to 1000 nM, the MTAP intact/deleted ratio [1] was “A (an IC50 ratio greater than or equal to 10 fold)” and the IC50 [2] was 50 to 500 nM. For the same compound, the IC50 [3] was 50 to 500 nM, the IC50 [4] was 1 to 10 µM and the IC50 [5] was < 50 nM. For the same compound, the “MTAP HAP1 intact IC50” value ([6]; SDMA in-cell western) was “C*”.

With `Cc1cc(NC(=O)C(=O)N2CC[C@@H](C(=O)C(C)C)C[C@H]2c2ccc3c(c2)CCC(=O)N3)cnc1N` (racemic) [Compound 853, N-(6-amino-5-methyl-3-pyridyl)-2-[(2S,4R)-4-(2-methylpropanoyl)-2-(2-oxo-3,4-dihydro-1H-quinolin-6-yl)-1-piperidyl]-2-oxo-acetamide] the IC50 [1] was 100 to 1000 nM, the MTAP intact/deleted ratio [1] was “A (an IC50 ratio greater than or equal to 10 fold)” and the IC50 [2] was 50 to 500 nM. For the same compound, the IC50 [3] was 50 to 500 nM, the IC50 [4] was 1 to 10 µM and the IC50 [5] was 50 to 500 nM. For the same compound, the IC50 [6] was > 1000 nM.

`Cc1cc(NC(=O)C(=O)N2CCC(C(=O)C(C)C)C[C@H]2c2ccc3c(c2)CCC(=O)N3)cnc1N` (mixture of isomers) [Compound 854, N-(6-Amino-5-methyl-3-pyridyl)-2-[(2S)-4-(2-methylpropanoyl)-2-(2-oxo-3,4-dihydro-1H-quinolin-6-yl)-1-piperidyl]-2-oxo-acetamide] was tested, and the IC50 [1] was 100 to 1000 nM, the MTAP intact/deleted ratio [1] was “A (an IC50 ratio greater than or equal to 10 fold)” and the IC50 [2] was 50 to 500 nM. For the same compound, the IC50 [3] was 50 to 500 nM, the IC50 [4] was 1 to 10 µM and the IC50 [5] was 50 to 500 nM. The IC50 [6] was > 1000 nM.

`Cc1cc(NC(=O)C(=O)N2C[C@H](C)CC[C@H]2c2ccc3sc(C(F)(F)F)nc3c2)cnc1N` (racemic) [Compound 861, rac-N-(6-Amino-5-methyl-3-pyridyl)-2-[(2R,5S)-5-methyl-2-[2-(trifluoromethyl)-1,3-benzothiazol-5-yl]-1-piperidyl]-2-oxo-acetamide] was tested, and the IC50 [1] was < 100 nM, the MTAP intact/deleted ratio [1] was “A (an IC50 ratio greater than or equal to 10 fold)” and the IC50 [2] was 50 to 500 nM. The IC50 [3] was 50 to 500 nM, the IC50 [4] was < 1 µM and the IC50 [5] was 50 to 500 nM. For the same compound, the IC50 [6] was 100 to 1000 nM.

For `C[C@@H]1CC[C@@H](c2ccc(F)cc2)N(C(=O)C(=O)Nc2cnc(N)c(C(F)F)c2)C1` (racemic) [Compound 867, N-[6-amino-5-(difluoromethyl)-3-pyridyl]-2-[(2R,5S)-2-(4-fluorophenyl)-5-methyl-1-piperidyl]-2-oxo-acetamide], the IC50 [1] was 100 to 1000 nM, the MTAP intact/deleted ratio [1] was “A (an IC50 ratio greater than or equal to 10 fold)” and the IC50 [2] was 50 to 500 nM. It also gave an IC50 [3] of 50 to 500 nM, an IC50 [4] of 1 to 10 µM and an IC50 [5] of 50 to 500 nM. For the same compound, the IC50 [6] was > 1000 nM.

For `COc1ncc(NC(=O)C(=O)N2C[C@@H](C)CC[C@@H]2c2ccc3c(c2)OCCN3)cc1C(N)=O` (racemic) [Compound 869, 5-[[2-[(2R,5S)-2-(3,4-dihydro-2H-1,4-benzoxazin-7-yl)-5-methyl-1-piperidyl]-2-oxo-acetyl]amino]-2-methoxy-pyridine-3-carboxamide], the IC50 [1] was < 100 nM, the MTAP intact/deleted ratio [1] was “A (an IC50 ratio greater than or equal to 10 fold)” and the IC50 [2] was 50 to 500 nM. The IC50 [3] was 50 to 500 nM, the IC50 [4] was < 1 µM and the IC50 [5] was 50 to 500 nM. For the same compound, the IC50 [6] was > 1000 nM.

With `CCc1cc(NC(=O)C(=O)N2C[C@@H](C)CC[C@@H]2c2ccc3c(c2)OCCN3)cnc1N` (racemic) [Compound 870, N-(6-amino-5-ethyl-3-pyridyl)-2-[(2R,5S)-2-(3,4-dihydro-2H-1,4-benzoxazin-7-yl)-5-methyl-1-piperidyl]-2-oxo-acetamide] the IC50 [1] was < 100 nM, the MTAP intact/deleted ratio [1] was “A (an IC50 ratio greater than or equal to 10 fold)” and the IC50 [2] was 50 to 500 nM. For the same compound, the IC50 [3] was 50 to 500 nM, the IC50 [4] was < 1 µM and the IC50 [5] was 50 to 500 nM. For the same compound, the IC50 [6] was > 1000 nM.

`Cc1cc(NC(=O)C(=O)N2C[C@@H](C)CC(F)(F)[C@@H]2c2ccc(F)cc2)cnc1N` (racemic) [Compound 871, N-(6-amino-5-methyl-3-pyridyl)-2-[(2S,5S)-3,3-difluoro-2-(4-fluorophenyl)-5-methyl-1-piperidyl]-2-oxo-acetamide] was tested, and the IC50 [1] was < 100 nM, the MTAP intact/deleted ratio [1] was “B (an IC50 ratio greater than or equal to 3 fold but lower than 10 fold)” and the IC50 [2] was 50 to 500 nM. For the same compound, the IC50 [3] was 50 to 500 nM, the IC50 [4] was 1 to 10 µM and the IC50 [5] was < 50 nM. For the same compound, the IC50 [6] was 100 to 1000 nM.

In the case of `C[C@@H]1CC[C@@H](c2ccc(F)cc2)N(C(=O)C(=O)Nc2cnc(N)c(C(F)(F)F)c2)C1` (racemic) [Compound 872, N-[6-Amino-5-(trifluoromethyl)-3-pyridyl]-2-[(2S,5R)-2-(4-fluorophenyl)-5-methyl-1-piperidyl]-2-oxo-acetamide], the IC50 [1] is reported as 100 to 1000 nM, the MTAP intact/deleted ratio [1] is reported as “A (an IC50 ratio greater than or equal to 10 fold)” and the IC50 [2] is reported as > 500 nM. For the same compound, the IC50 [3] was 50 to 500 nM, the IC50 [4] was 1 to 10 µM and the IC50 [5] was 50 to 500 nM. The IC50 [6] was > 1000 nM.

With `C[C@@H]1C[C@H](F)[C@@H](c2ccc(F)cc2)N(C(=O)C(=O)Nc2cncc(C(N)=O)c2)C1` (racemic) [Compound 879, 5-[[2-[(2R,3S,5R)-3-fluoro-2-(4-fluorophenyl)-5-methyl-1-piperidyl]-2-oxo-acetyl]amino]pyridine-3-carboxamide] the IC50 [1] was 100 to 1000 nM, the MTAP intact/deleted ratio [1] was “A (an IC50 ratio greater than or equal to 10 fold)” and the IC50 [2] was 50 to 500 nM. For the same compound, the IC50 [3] was 50 to 500 nM, the IC50 [4] was 1 to 10 µM and the IC50 [5] was < 50 nM. For the same compound, the IC50 [6] was > 1000 nM.
